This note sets out measurements from BindingDB's records for doi:10.1016/0960-894X(96)00045-5 (1996).

One may read the Ki as the dissociation constant of the complex between target and ligand, obtained from inhibition or displacement.

Chain of 5-hydroxytryptamine receptor 1A (Rattus norvegicus) (P19327 whole entry, looked up): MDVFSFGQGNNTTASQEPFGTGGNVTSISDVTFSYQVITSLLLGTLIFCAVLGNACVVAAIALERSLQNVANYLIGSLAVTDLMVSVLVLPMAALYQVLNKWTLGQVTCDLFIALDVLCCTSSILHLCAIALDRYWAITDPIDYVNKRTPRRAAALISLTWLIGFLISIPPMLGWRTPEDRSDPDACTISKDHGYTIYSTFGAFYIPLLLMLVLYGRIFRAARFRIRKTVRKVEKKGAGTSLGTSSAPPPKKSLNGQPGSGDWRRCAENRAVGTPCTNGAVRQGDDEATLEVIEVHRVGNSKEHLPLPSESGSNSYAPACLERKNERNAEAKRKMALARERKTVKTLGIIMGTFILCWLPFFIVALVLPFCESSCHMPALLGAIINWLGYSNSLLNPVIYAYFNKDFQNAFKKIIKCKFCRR

The assay has as its target 5-hydroxytryptamine receptor 1A (Rattus norvegicus) (UniProt P19327). Put plainly: Inhibition of specific [3H]OH-DPAT binding at 5-hydroxytryptamine 1A receptor in rat hippocampal membranes.
As to `CCCN(CCC)C[C@@H]1C[C@@H]1c1ccccc1O` [2-((1S,2R)-2-Dipropylaminomethyl-cyclopropyl)-phenol], affinity was put at a Ki of 379 nM.
Then `CCN(CC)C[C@H]1C[C@@H]1c1ccccc1O` [2-((1S,2S)-2-Diethylaminomethyl-cyclopropyl)-phenol], with 506 nM; and `CCCN(CCC)C[C@H]1C[C@@H]1c1ccccc1O` [2-((1S,2S)-2-Dipropylaminomethyl-cyclopropyl)-phenol], with 752 nM.
Then `CCCN(CCC)C[C@@H]1C[C@@H]1c1cccc(O)c1` [3-((1S,2R)-2-Dipropylaminomethyl-cyclopropyl)-phenol], with 58 nM; and `CCCN(CCC)C[C@H]1C[C@@H]1c1cccc(O)c1` [3-((1S,2S)-2-Dipropylaminomethyl-cyclopropyl)-phenol], with 186 nM; and `CCN(CC)C[C@H]1C[C@@H]1c1ccccc1OC` [Diethyl-[(1S,2S)-2-(2-methoxy-phenyl)-cyclopropylmethyl]-amine], with 431 nM.
Then `CCCN(CCC)[C@@H]1C[C@@H]1c1ccccc1OC` [[(1R,2R)-2-(2-Methoxy-phenyl)-cyclopropyl]-dipropyl-amine], with above 10000 nM.
In turn, `CCCN(CCC)[C@@H]1C[C@@H]1c1cccc(OC)c1` [[(1R,2R)-2-(3-Methoxy-phenyl)-cyclopropyl]-dipropyl-amine] gave a Ki of 736 nM.
The molecule `CCCN(CCC)C[C@@H]1C[C@@H]1c1ccccc1OC` [[(1R,2S)-2-(2-Methoxy-phenyl)-cyclopropylmethyl]-dipropyl-amine] returned a Ki of 998 nM.
Turning to `CCCN(CCC)C[C@@H]1C[C@@H]1c1cccc(OC)c1` [[(1R,2S)-2-(3-Methoxy-phenyl)-cyclopropylmethyl]-dipropyl-amine], affinity was put at a Ki of 388 nM.
`CCCN(CCC)[C@H]1C[C@@H]1c1ccccc1OC` [[(1S,2R)-2-(2-Methoxy-phenyl)-cyclopropyl]-dipropyl-amine] came in with a Ki of 17 nM.
Then `CCCN(CCC)C[C@H]1C[C@@H]1c1ccccc1OC` [[(1S,2S)-2-(2-Methoxy-phenyl)-cyclopropylmethyl]-dipropyl-amine], with 239 nM.
As for `CCCN(CCC)C[C@H]1C[C@@H]1c1cccc(OC)c1` [[(1S,2S)-2-(3-Methoxy-phenyl)-cyclopropylmethyl]-dipropyl-amine], the figure is 310 nM.
